Source: patent publication US12472178B2, “Amorphous solid dispersions” (INTRA-CELLULAR THERAPIES, INC., priority 2016, dated 2025)

Legend:
[1] = amorphous form compared with the crystalline form; cited from earlier work
H1 histaminergic = H1 histaminergic (Homo sapiens, UniProt P35367); conditions: cited from earlier work
muscarinic receptors = conditions: cited from earlier work
[2] = Stability of solutions in 2,2,2-trifluoroethanol; assay type: physicochemical; conditions: solutions in TFE
5-HT2C = biological target: T1, 5-HT2C (Homo sapiens, UniProt P28335); conditions: cited from earlier work
T1 sequence (P28335 33-458): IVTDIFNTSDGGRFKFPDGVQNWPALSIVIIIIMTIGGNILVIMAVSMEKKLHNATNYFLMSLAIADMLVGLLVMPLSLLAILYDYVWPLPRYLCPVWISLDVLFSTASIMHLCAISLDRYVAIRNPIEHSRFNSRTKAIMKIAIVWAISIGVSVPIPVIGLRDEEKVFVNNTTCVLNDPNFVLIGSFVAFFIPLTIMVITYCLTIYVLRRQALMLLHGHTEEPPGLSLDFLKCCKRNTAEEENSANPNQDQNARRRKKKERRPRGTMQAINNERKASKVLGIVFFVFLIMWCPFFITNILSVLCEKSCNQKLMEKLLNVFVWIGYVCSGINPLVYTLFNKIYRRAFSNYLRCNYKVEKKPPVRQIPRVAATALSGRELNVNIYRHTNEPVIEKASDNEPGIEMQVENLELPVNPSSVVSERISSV

[3] = Glass transition temperature by mDSC; assay type: physicochemical; conditions: ITI-007 free base dispersions; Yes/No
[4] = free base form; cited from earlier work
[5] = Preliminary screen of lyophilized dispersions by XRPD and appearance; assay type: physicochemical; conditions: ITI-007 free base dispersions, as generated
Procedure: X-ray powder diffraction (XRPD): The X-ray powder diffraction studies are performed using a PANalytical X′Pert PRO MPD diffractometer using an incident beam of Cu radiation produced using an Optix long, fine-focus source. An elliptically graded multilayer mirror is used to focus Cu Kα X-ray radiation through the specimen and onto the detector. Prior to analysis, a silicon specimen is analyzed to verify the observed position of the Si (111) peak (consistent with the NIST-certified position, NIST SM 640e). A specimen of the sample is sandwiched between 3-micron thick films and analyzed in transmission geometry. A beam-stop, short antiscatter extension, and antiscatter knife edge is used to minimize the background generated by the air. Soller slits for the incident and diffracted beams are used to minimize broadening from axial divergence. Diffraction patterns are collected using a scanning position-sensitive detector (X′Celerator) located 240 mm from the specimen. Data Collector software v. 2.2b is used for analysis.
Solutions are initially frozen in a dry ice/acetone bath, and then placed in a freeze dryer with the shelf pre-cooled to −75° C. […]
Solid dispersions obtained from Example 1 are first evaluated by XRPD to determine if they are amorphous. […]
The same excipients are evaluated as described in Example 1.

H1 histaminergic, sequence (P35367 whole entry): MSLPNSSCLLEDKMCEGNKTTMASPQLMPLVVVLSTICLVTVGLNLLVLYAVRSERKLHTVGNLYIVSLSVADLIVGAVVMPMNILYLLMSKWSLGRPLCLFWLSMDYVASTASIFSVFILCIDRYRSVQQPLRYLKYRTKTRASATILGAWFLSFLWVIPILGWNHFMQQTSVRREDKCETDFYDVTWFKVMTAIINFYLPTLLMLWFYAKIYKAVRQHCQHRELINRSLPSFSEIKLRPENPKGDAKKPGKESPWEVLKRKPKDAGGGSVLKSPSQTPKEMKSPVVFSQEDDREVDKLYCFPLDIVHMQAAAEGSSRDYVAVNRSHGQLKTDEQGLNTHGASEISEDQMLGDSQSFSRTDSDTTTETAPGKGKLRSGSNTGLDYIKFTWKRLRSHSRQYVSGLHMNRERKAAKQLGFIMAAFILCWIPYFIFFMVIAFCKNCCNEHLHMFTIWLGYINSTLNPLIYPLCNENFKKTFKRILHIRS

| SMILES | bioavailability [1] | binding (H1 histaminergic) | binding (muscarinic receptors) | stability of solution [2] | binding (5-HT2C) | Tg > 75° C. [3] | solubility in water [4] | X-ray Amorphous Solids? [5] |
| --- | --- | --- | --- | --- | --- | --- | --- | --- |
| CO/N=C(\C(=O)N[C@@H]1C(=O)N2C(C(=O)OC(C)OC(C)=O)=C(COC(N)=O)CS[C@H]12)c1ccco1 (some centres unmarked) [Cefuroxime axetil] | higher bioavailability | – | – | – | – | – | – | – |
| CN1CCN2c3c(cccc31)[C@@H]1CN(CCCC(=O)c3ccc(F)cc3)CC[C@@H]12 [ITI-007, 1-(4-fluoro-phenyl)-4-((6bR,10aS)-3-methyl-2,3,6b,9,10,10a-hexahydro-1H,7H-pyrido[3′,4′:4,5]pyrrolo[1,2,3-de]quinoxalin-8-yl)-butan-1-one] | – | negligible binding | negligible binding | rapidly discolor due to decomposition of the active | negligible binding | No | poor solubility | No |
